US20260325533A1, “CDK INHIBITOR COMPOUNDS” (ALEKSIA THERAPEUTICS, INC., priority 2023, published 2026)

These compounds were tested against CDK2/CCNE1 (Homo sapiens, UniProt P24941) (assay: CDK2 homogeneous time-resolved fluorescence (HTRF) kinase assay). Settings: <25 nM; CDK2/CCNE; read-out: CDK2/CCNE IC50, <25 nM.
Type: biochemical
Description: (§1) A CDK homogeneous time-resolved fluorescence (HTRF) assay was used to assess the potency of the compounds described herein.
(§2) To an untreated 384-well microtiter plate (ProxiPlate) was added 100 nL 100×test compound in DMSO and 5 μL 2×CDK enzyme in assay buffer (50 mM HEPES, 1 mM EGTA, 10 mM MgCl2, 0.01% Tween 20, 2 mM DTT). The plate was centrifuged at 800 RPM for 1 min then incubated for 20 min at 23 °C. 2.5 μL per well of 4×ATP and 2.5 μL 4×ULight™-eIF4E-binding protein 1 (Thr37/46) Peptide substrate were added to all wells. After addition, the plates were centrifuged at 800 RPM for 1 min. The plates were incubated at 23 °C for 60 min. 5 μL per well 4×EDTA solution were added to each well to stop the reaction. 5 μL 4×LANCE Ultra Europium-anti-phospho-eIF4E-binding protein 1 (Thr37/46) antibody were added to each well and the plate was centrifuged for 1 min at 800 RPM. The plate was incubated for 60 min at 23 °C. Fluorescence was read at 340 nm excitation and 665 nm emission on an En Vision 2105 fluorescence reader. The final concentrations of reagents in the activity assay were 3 nM CDK2/CCNE1, 1 mM ATP, 50 nM ULight™-eIF4E-binding protein 1 (Thr37/46) Peptide substrate, 1% DMSO, 10 mM EDTA, and 2 nM LANCE Ultra Europium-anti-phospho-eIF4E-binding protein 1 (Thr37/46).
(§3) Dose-response titrations were conducted by using an 11-point, half-logarithmic serial dilution scheme typically starting at 10 μM. Signals were reported as fluorescence units at 665 nm or the ratio of fluorescence units at 665 nm/fluorescence units at 615 nm. Signals are referred to below as “Lance signals”.
(§4) Using this assay, the IC50 values of example compounds were determined. Table 3 illustrates the IC50 for various Example compounds of Formula IA. Table 4 illustrates the IC50 for various other Example compounds of Formula I. ND=not determined.

IC50, < 0.025 µM:
Cc1c(-c2nccc3cnc(Nc4ccc(S(=N)(=O)Nc5ccccc5)cc4)cc23)ccc2c1cnn2CC(O)(C(F)(F)F)C(F)(F)F (single isomer, unassigned) [Ex 693, 4-((5-(4-methyl-1-(3,3,3-trifluoro-2-hydroxy-2-(trifluoromethyl)propyl)-1H-indazol-5-yl)-2,6-naphthyridin-3-yl)amino)-N-phenylbenzenesulfonimidamide]
Cc1c(-c2nccc3cnc(Nc4ccc(S(=N)(=O)NC5CCC5)cc4)cc23)ccc2c1cnn2CC(O)(C(F)(F)F)C(F)(F)F (single isomer, unassigned) [Ex 690, N-cyclobutyl-4-((5-(4-methyl-1-(3,3,3-trifluoro-2-hydroxy-2-(trifluoromethyl)propyl)-1H-indazol-5-yl)-2,6-naphthyridin-3-yl)amino)benzenesulfonimidamide]

Same assay, conditions: >250 nM; CDK2/CCNE; read-out: CDK2/CCNE IC50, >250 nM

IC50, > 0.25 µM:
CS(=O)(=O)c1ccc(Nc2cc3c(C#Cc4cccnc4O)nccc3cn2)cc1 [Ex 902, 3-((7-((4-(methylsulfonyl)phenyl)amino)-2,6-naphthyridin-1-yl)ethynyl)pyridin-2-ol]

Same assay, conditions: CDK2/CCNE; 25-250 nM marked x; read-out: CDK2/CCNE IC50 25-250 nM

IC50, 0.025 to 0.25 µM:
O=C(Oc1ccc(F)cc1)c1ccc(Nc2cc3c(C4=CCCCC4)nccc3cn2)cc1 [Ex 254, 4-fluorophenyl 4-((5-(cyclohex-1-en-1-yl)-2,6-naphthyridin-3-yl)amino)benzoate]
CS(=O)(=O)N1CCC(Nc2cc3c(-c4ccc(C#N)nc4)nccc3cn2)CC1 [Ex 79, 5-(7-((1-(methylsulfonyl)piperidin-4-yl)amino)-2,6-naphthyridin-1-yl)picolinonitrile]
CC(=O)N1CCN(c2nccc3cnc(NC4CCN(S(C)(=O)=O)CC4)cc23)CC1 [Ex 58, 1-(4-(7-((1-(methylsulfonyl)piperidin-4-yl)amino)-2,6-naphthyridin-1-yl)piperazin-1-yl)ethan-1-one]
CCC1(CC)C(=O)Nc2cc(C#Cc3nccc4cnc(Nc5ccc(S(=N)(=O)C(C)C)cc5OC)cc34)ccc21 (single isomer, unassigned) [Ex 341, 3,3-diethyl-6-((7-((2-methoxy-4-(propan-2-ylsulfonimidoyl)phenyl)amino)-2,6-naphthyridin-1-yl)ethynyl)indolin-2-one]
CS(=O)(=O)N1CCC(Nc2cc3c(N4CCOCC4)nccc3cn2)CC1 [Ex 30, N-(1-(methylsulfonyl)piperidin-4-yl)-5-morpholino-2,6-naphthyridin-3-amine]
CCC1(CC)C(=O)Nc2cc(C#Cc3nccc4cnc(Nc5ccc(S(=N)(=O)C6CC(F)(F)C6)cc5F)cc34)ccc21 (single isomer, unassigned) [Ex 302, 6-((7-((4-(3,3-difluorocyclobutane-1-sulfonimidoyl)-2-fluorophenyl)amino)-2,6-naphthyridin-1-yl)ethynyl)-3,3-diethylindolin-2-one]
COC(=O)c1ccc(Nc2cc3c(C4=CCCCC4)nccc3cn2)cc1 [Ex 101, methyl 4-((5-(cyclohex-1-en-1-yl)-2,6-naphthyridin-3-yl)amino)benzoate]
CNC(=O)C1CCCN(c2nccc3cnc(NC4CCN(S(C)(=O)=O)CC4)cc23)C1 (single isomer, unassigned) [Ex 31, N-methyl-1-(7-((1-(methylsulfonyl)piperidin-4-yl)amino)-2,6-naphthyridin-1-yl)piperidine-3-carboxamide]
CCC1(CC)C(=O)Nc2cc(C#Cc3nccc4cnc(Nc5ccc(S(=N)(=O)C6CCC6)cc5OC)cc34)ccc21 (single isomer, unassigned) [Ex 272, 6-((7-((4-(cyclobutanesulfonimidoyl)-2-methoxyphenyl)amino)-2,6-naphthyridin-1-yl)ethynyl)-3,3-diethylindolin-2-one]

Same assay, conditions: CDK2/CCNE; <25 nM; read-out: CDK2/CCNE IC50 <25 nM

IC50, < 0.025 µM:
CCC1(CC)C(=O)Nc2cc(C#Cc3nccc4cnc(Nc5ccc(S(C)(=N)=O)cc5OC)cc34)ccc21 (single isomer, unassigned) [Ex 320, 3,3-diethyl-6-((7-((2-methoxy-4-(S-methylsulfonimidoyl)phenyl)amino)-2,6-naphthyridin-1-yl)ethynyl)indolin-2-one]
CCC1(CC)C(=O)Nc2cc(C#Cc3nccc4cnc(Nc5ccc(S(=N)(=O)C6COC6)cc5OC)cc34)ccc21 (single isomer, unassigned) [Ex 318, 3,3-diethyl-6-((7-((2-methoxy-4-(oxetane-3-sulfonimidoyl)phenyl)amino)-2,6-naphthyridin-1-yl)ethynyl)indolin-2-one]
CCC1(CC)C(=O)Nc2cc(C#Cc3nccc4cnc(Nc5ccc(S(C)(=N)=O)cc5C(F)F)cc34)ccc21 (single isomer, unassigned) [Ex 295, 6-((7-((2-(difluoromethyl)-4-(S-methylsulfonimidoyl)phenyl)amino)-2,6-naphthyridin-1-yl)ethynyl)-3,3-diethylindolin-2-one]
CCC1(CC)C(=O)Nc2cc(C#Cc3nccc4cnc(Nc5ccc(S(=N)(=O)CC)cc5OC)cc34)ccc21 (single isomer, unassigned) [Ex 309, 3,3-diethyl-6-((7-((4-(ethylsulfonimidoyl)-2-methoxyphenyl)amino)-2,6-naphthyridin-1-yl)ethynyl)indolin-2-one]
COc1cc(S(C)(=N)=O)ccc1Nc1cc2c(C#Cc3ccc4c(c3)NC(=O)C43CCC3)nccc2cn1 (single isomer, unassigned) [Ex 314, 6'-((7-((2-methoxy-4-(S-methylsulfonimidoyl)phenyl)amino)-2,6-naphthyridin-1-yl)ethynyl)spiro[cyclobutane-1,3'-indolin]-2'-one]
CCC1(CC)C(=O)Nc2cc(C#Cc3nccc4cnc(Nc5ccc(S(=N)(=O)C6CC6)cc5OC)cc34)ccc21 (single isomer, unassigned) [Ex 300, 6-((7-((4-(cyclopropanesulfonimidoyl)-2-methoxyphenyl)amino)-2,6-naphthyridin-1-yl)ethynyl)-3,3-diethylindolin-2-one]

Same assay, conditions: CDK2/CCNE; x = IC50 <25 nM; read-out: CDK2/CCNE IC50 (<25 nM)

IC50, < 0.025 µM:
CCS(=N)(=O)c1ccc(Nc2cc3c(C#Cc4ccc5c(c4)NC(=O)C54CC4)nccc3cn2)cc1 (racemic) [Ex 377, 6'-((7-((4-(ethylsulfonimidoyl)phenyl)amino)-2,6-naphthyridin-1-yl)ethynyl)spiro[cyclopropane-1,3'-indolin]-2'-one]

The compounds below were run against CDK1/CCNB1 (Homo sapiens, UniProt P06493) (assay: CDK1 homogeneous time-resolved fluorescence (HTRF) kinase assay). Settings: CDK1/CCNB; 25-250 nM marked x; read-out: CDK1/CCNB IC50 25-250 nM.
Type: biochemical
Description: as §1
as §2, with “were 0.5” for “were 3”, “nM CDK1/CCNB1,” for “nM CDK2/CCNE1,”
as §3, §4

CDK1/CCNB1, sequence (P06493 whole entry): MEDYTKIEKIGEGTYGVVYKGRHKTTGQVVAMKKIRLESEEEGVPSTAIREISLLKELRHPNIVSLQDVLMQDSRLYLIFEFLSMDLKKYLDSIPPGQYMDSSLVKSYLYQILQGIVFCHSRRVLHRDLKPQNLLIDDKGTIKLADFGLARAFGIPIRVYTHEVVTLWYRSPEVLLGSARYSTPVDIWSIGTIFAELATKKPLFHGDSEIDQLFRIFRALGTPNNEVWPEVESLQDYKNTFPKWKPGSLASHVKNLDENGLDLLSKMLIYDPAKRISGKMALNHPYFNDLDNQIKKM
CDK1/CCNB1, sequence (P14635 whole entry partner): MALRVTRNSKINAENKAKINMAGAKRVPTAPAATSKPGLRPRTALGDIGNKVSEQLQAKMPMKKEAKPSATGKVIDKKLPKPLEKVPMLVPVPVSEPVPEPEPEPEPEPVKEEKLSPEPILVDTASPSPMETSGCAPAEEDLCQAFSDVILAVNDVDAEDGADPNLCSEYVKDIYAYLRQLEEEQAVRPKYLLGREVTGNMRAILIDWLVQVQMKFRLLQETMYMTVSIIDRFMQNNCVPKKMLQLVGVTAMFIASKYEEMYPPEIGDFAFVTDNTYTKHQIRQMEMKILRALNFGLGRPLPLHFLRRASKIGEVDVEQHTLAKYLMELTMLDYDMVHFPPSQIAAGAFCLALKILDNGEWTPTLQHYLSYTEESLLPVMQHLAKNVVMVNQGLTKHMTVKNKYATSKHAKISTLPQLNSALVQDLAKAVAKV

IC50, 0.025 to 0.25 µM:
N=S(=O)(c1ccc(Nc2cc3c(C#Cc4ccc5c(c4)NC(=O)C54CC4)nccc3cn2)c(F)c1)C1COC1 (single isomer, unassigned) [Ex 276, 6'-((7-((2-fluoro-4-(oxetane-3-sulfonimidoyl)phenyl)amino)-2,6-naphthyridin-1-yl)ethynyl)spiro[cyclopropane-1,3'-indolin]-2'-one]

Same assay, conditions: CDK1/CCNB; <25 nM; read-out: CDK1/CCNB IC50 <25 nM

IC50, < 0.025 µM:
CC(C)S(=N)(=O)c1ccc(Nc2cc3c(C#Cc4ccc5c(c4)NC(=O)C5(C)CO)nccc3cn2)cc1 (single isomer, unassigned) [Ex 331, 3-(hydroxymethyl)-3-methyl-6-((7-((4-(propan-2-ylsulfonimidoyl)phenyl)amino)-2,6-naphthyridin-1-yl)ethynyl)indolin-2-one]
